Source: US20090305969A1, “Skin Repair Accelerating Therapeutic Agent Containing Desacyl Ghrelin and Derivatives Thereof as Active Ingredient” (priority 2005, published 2009)
Where no end group is shown, it is not given here. The star is where a group is joined. Octanoyl = CCCCCCCC(=O)*

Key:
cultured fetal skin cell = assay: Proliferation activity in cultured fetal skin cell (BrdU uptake, Proliferation ELISA); type: cell-based, rat; details: 24 hours incubation, BrdU 10 μM, versus control medium, FIG. 2
Procedure: The skin cells of a rat fetus were collected from a Wistar rat on the 17th day of pregnancy, and a dispersion liquid thereof was obtained in the same manner as in Example 1. The dispersed cells were suspended in a MCDB153HAA medium (F-Peptide Co., Ltd., Yamagata, Japan) containing 2% fetal bovine serum, penicillin (100 U/mL), streptomycin (100 μg/mL) and epidermal growth factor EGF (5 ng/mL), and sowed on a polyethyleneimine coated 96-hole multi-well plate in an amount of 3×10^4 cells/well. Desacyl ghrelin (0.05 to 500 μmol/mL (nM)) or desacyl ghrelin (1-15)-NH2 (SEQ ID NO: 22) (0.001 to 1 μmol/mL (nM)) and 5-bromo-2′-deoxyuridine (BrdU) (10 μM) were added thereto, which was then incubated for 24 hours. A medium containing neither desacyl ghrelin nor desacyl ghrelin (1-15)-NH2 was used as a control. After the culture was over, cells were collected, and then uptake quantity of BrdU into the fetal skin cell was measured using Proliferation ELISA Kit (Roche Diagnostic GmbH. Manheim, Germany) to consider the skin cell growth activity.
Uptake of BrdU increased when desacyl ghrelin or desacyl ghrelin (1-15)-NH2 acted on a cultured fetal skin cell.

skin cell of rat fetus = assay: Intracellular calcium increasing activity in single cultured skin cell of rat fetus (Fura-2 calcium imaging); type: cell-based; details: for cell response in calcium imaging (FIG. 1 curves): single fetal rat skin cell, ghrelin and desacyl ghrelin added to different cells, concentration not given
Procedure: A Wistar rat on the 17th day of pregnancy underwent laparotomy under anesthesia for fetus extraction. A small piece of skin was collected from the fetus, treated with collagenase in cold Hank's solution, digested with papain, and mechanically separated by pipetting. This gave a dispersion liquid of the fetal skin cells. A single cell was obtained from the dispersion liquid, ghrelin was added thereto, and calcium imaging was performed. For the calcium imaging, a calcium imaging device (IMACS, Hamamatsu Photonics) was used. That is, the ratio of the emission at a wavelength of 510 nm was measured when excitation was performed by 340 nm/380 nm light. Fura-2 was used as a calcium imaging agent. Desacyl ghrelin derived from a rat (SEQ ID NO: 3) was used.
In FIG. 1, I, II and III are the points at which a photograph was taken, but the photographs are omitted from the present description. […] Ghrelin and desacyl ghrelin were added to different cells, respectively.
It was shown that a receptor that responds to desacyl ghrelin existed in the skin cell of the rat fetus, and that addition of desacyl ghrelin increased intracellular calcium, inducing the activity of desacyl ghrelin.

Substance	uptake of BrdU into the fetal skin cell (cultured fetal skin cell; desacyl ghrelin (1-15)-NH2 0.001 to 1 μmol/mL (nM))	intracellular calcium (skin cell of rat fetus; 1×10^−6 M, skin cell of a single rat fetus, Fura-2 ratio 340 nm/380 nm, FIG. 1)	cell response in calcium imaging (FIG. 1 curves) (skin cell of rat fetus)	uptake of BrdU into the fetal skin cell (cultured fetal skin cell; desacyl ghrelin 0.05 to 500 μmol/mL (nM))
desacyl ghrelin (1-15)-NH2: Peptide of the N terminus to the 15th amino acid residue of desacyl ghrelin, the 15th amino acid amidated (GSSFLSPEHQKAQQR-NH2; listed as Rattus norvegicus)	increased	–	–	–
desacyl ghrelin: Ghrelin peptide without the acyl (octanoyl) group at the third serine; rat sequence GSSFLSPEHQKAQQRKESKKPPAKLQPR (SEQ ID NO: 3) (PEPTIDE (1)..(28) Amino acid sequence for rat endogenous peptides of growth hormone secretagogue receptor; listed as Rattus norvegicus)	–	increase of intracellular calcium was observed	responded	increased
ghrelin: 28-residue peptide hormone, third amino acid from the N terminus acylated with fatty acid (n-octanoyl); acts on GHS-R1a (GSS(Octanoyl)FLSPEHQRVQQRKESKKPPAKLQPR; UniProt Q9UBU3 24-51, looked up) [reference compound]	–	–	responded	–
